pIC50: −log10 of the molar value.
Biological target: T1, hROMK (hKir1.1) (Homo sapiens, UniProt P48048)
T1 construct: expressed in transfected cells
T1 sequence (P48048 1-391): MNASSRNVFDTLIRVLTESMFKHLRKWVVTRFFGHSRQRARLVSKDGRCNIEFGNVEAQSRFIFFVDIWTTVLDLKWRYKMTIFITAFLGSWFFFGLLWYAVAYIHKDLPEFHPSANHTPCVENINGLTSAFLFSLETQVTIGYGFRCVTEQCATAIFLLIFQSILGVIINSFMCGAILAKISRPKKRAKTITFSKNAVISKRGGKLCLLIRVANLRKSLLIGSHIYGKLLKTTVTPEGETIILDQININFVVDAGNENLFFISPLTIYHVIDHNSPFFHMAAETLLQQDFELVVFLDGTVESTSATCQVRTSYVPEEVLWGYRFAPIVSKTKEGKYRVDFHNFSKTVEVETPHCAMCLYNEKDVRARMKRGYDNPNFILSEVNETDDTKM
Experiment: Thallium Flux Assay (FluxOR, FLIPR-Tetra)
Type: cell-based
Conditions: HEK293 cells stably expressing hROMK; potency ranges
Experimental: Several assays may be used to measure functional inhibition of the ROMK channel by compounds of the instant invention. One primary assay that can be used is a functional ^86Rb^+ efflux assay that measures the ability of ROMK to permeate ^86Rb^+, in the absence or presence of test compound. Under control conditions, cells loaded with ^86Rb^+ and incubated in Rb^+-free medium display a time-dependent efflux of the isotope, the rate of which depends on number of functional channels. When cells are incubated in the presence of a channel inhibitor, efflux of ^86Rb^+ is prevented in a concentration-dependent manner, and IC50 values of inhibition by compounds can be accurately determined. This assay has been established with cell lines expressing either human, rat or dog ROMK channels, and can operate in 96- or 384-well format. Importantly, the human, rat, and dog ^86Rb^+ efflux assays can be carried out in the presence of up to 100% serum allowing, therefore, an accurate estimation of the effect of protein binding on the inhibitory activity of compounds of interest. Another ROMK functional assay makes use of the ability of thallium to permeate through open ROMK channels and increase the fluorescence of a dye previously loaded into the cells. Under control conditions, cells loaded with dye and exposed to thallium-containing medium display a time-dependent increase in fluorescence, the rate of which depends on number of functional channels. When cells are incubated in the presence of a channel inhibitor, the increase in fluorescence is attenuated in a concentration-dependent manner, and IC50 values of inhibition by compounds can be accurately determined. This assay has been established with cell lines expressing either human, or rat ROMK channels, and operates in 384-well format. Another assay for evaluation of the compounds of the instant invention and for evaluation of mechanism of action of compounds of Formula I relies on the measurement of the electrical current that is generated as potassium permeates through the channel. For these electrophysiological experiments, three different platforms, IonWorks, QPatch, or manual patch clamp, are used, depending on the experimental protocol under consideration. IonWorks operates in a 384-well format and allows accurate determination of IC50 values for inhibitors.
HEK293 cells stably expressing hROMK (hKir1.1) were grown at 37° C. in a 10% CO2 humidified incubator in complete growth media: Dulbecco's Modified Eagle Medium supplemented with non-essential amino acids, Penicillin/Streptomycin/Glutamine, G418 and FBS. At >80% confluency, media was aspirated from the flask and rinsed with 10 ml Calcium/Magnesium-free PBS. 5 ml of 1× trypsin (prepared in Ca/Mg Free PBS) was added to T-225 flask and flask returned to 37° C./CO2 incubator for 2-3 minutes. To dislodge the cell, the side of the flask was gently banged by hand. Cells were completely triturated and then transferred to 25 ml complete media, and centrifuged at 1,500 rpm for 6 min followed by resuspension in complete growth media and cell concentration determined. For typical re-seeding, 4E6 cells/T-225 flask attained >80% confluency in 4 days. Under ideal growth conditions and appropriate tissue culture practices, this cell line was stable for 40-45 passages.
FluxOR™ Kit Components (Invitrogen F10017)
• FluxOR™ Reagent (Component A) • FluxOR™ Assay Buffer (Component B)—10× Concentrate • PowerLoad™ Concentrate (Component C)—100× Concentrate • Probenecid (Component D)—Lyophilized sample was kept at −20° C. Water soluble, 100× after solubilization in 1 ml water. Store at 4° C. • FluxOR™ Chloride-free Buffer (Component E)—5× Concentrate • Potassium sulfate (K2SO4) Concentrate (Component F)—125 mM in water. Stored at 4° C. • Thallium sulfate (Tl2SO4) Concentrate (Component G)—50 mM in water. […]

pIC50	SMILES
≥ 7.00	Cc1c(C(O)CC2CCN(C(=O)Cc3ccc(-n4cnnn4)nc3)CC2)ccc2c1COC2=O (racemic) [Example 110, 5-[1-Hydroxy-2-(1-{[6-(1H-tetrazol-1-yl)pyridin-3-yl]acetyl}piperidin-4-yl)ethyl]-4-methyl-2-benzofuran-1(3H)-one]
≥ 6.70	Cc1c([C@@H](O)CN2CCC(CN(C)c3ccc(C#N)cn3)CC2)ccc2c1COC2=O [Example 93, 6-[({1-[(2R)-2-Hydroxy-2-(4-methyl-1-oxo-1,3-dihydro-2-benzofuran-5-yl)ethyl]piperidin-4-yl}methyl)(methyl)amino]pyridine-3-carbonitrile]
≥ 7.00	Cc1c(SCC2CCN(C[C@H](O)c3ccc4c(c3C)COC4=O)CC2)ccc2c1COC2=O [Example 94, 5-[({1-[(2R)-2-Hydroxy-2-(4-methyl-1-oxo-1,3-dihydro-2-benzofuran-5-yl)ethyl]piperidin-4-yl}methyl)sulfanyl]-4-methyl-2-benzofuran-1(3H)-one]
≥ 7.00	Cc1c(OCC2CCN(C[C@H](O)c3ccc4c(c3C)COC4=O)CC2)ccc2c1COC2=O [Example 95, 5-({1-[(2R)-2-Hydroxy-2-(4-methyl-1-oxo-1,3-dihydro-2-benzofuran-5-yl)ethyl]piperidin-4-yl}methoxy)-4-methyl-2-benzofuran-1(3H)-one]
≥ 7.00	Cc1c([C@@H](O)CN2CCC(C[S+]([O-])c3ccc4c(c3C)COC4=O)CC2)ccc2c1COC2=O (stereo partly drawn) [Example 96, 5-[({1-[(2R)-2-hydroxy-2-(4-methyl-1-oxo-1,3-dihydro-2-benzofuran-5-yl)ethyl]piperidin-4-yl}methyl)sulfinyl]-4-methyl-2-benzofuran-1(3H)-one]
≥ 7.00	Cc1c([C@@H](O)CN2CCC(CS(=O)(=O)c3ccc4c(c3C)COC4=O)CC2)ccc2c1COC2=O [Example 99]
≥ 7.00	Cc1c([C@@H](O)CN2CCC(CSc3ccc(C#N)cn3)CC2)ccc2c1COC2=O [Example 100, 6-[({1-[(2R)-2-Hydroxy-2-(4-methyl-1-oxo-1,3-dihydro-2-benzofuran-5-yl)ethyl]piperidin-4-yl}methyl)sulfanyl]pyridine-3-carbonitrile]
≥ 6.70	Cc1c([C@@H](O)CN2CCC(F)(COc3ccc(C#N)cn3)CC2)ccc2c1COC2=O [Example 102, 6-({4-Fluoro-1-[(2R)-2-hydroxy-2-(4-methyl-1-oxo-1,3-dihydro-2-benzofuran-5-yl)ethyl]piperidin-4-yl}methoxy)pyridine-3-carbonitrile]
≥ 6.70	Cc1c([C@@H](O)CN2CCC(CSc3ccc4c(c3)CCOC4=O)CC2)ccc2c1COC2=O [Example 103, 6-[({1-[(2R)-2-Hydroxy-2-(4-methyl-1-oxo-1,3-dihydro-2-benzofuran-5-yl)ethyl]piperidin-4-yl}methyl)sulfanyl]-3,4-dihydro-1H-isochromen-1-one]
≥ 7.00	Cc1c([C@@H](O)CN2CCC(C[S+]([O-])c3ccc4c(c3)CCOC4=O)CC2)ccc2c1COC2=O (stereo partly drawn) [Example 104, 6-[({1-[(2R)-2-Hydroxy-2-(4-methyl-1-oxo-1,3-dihydro-2-benzofuran-5-yl)ethyl]piperidin-4-yl}methyl)sulfinyl]-3,4-dihydro-1H-isochromen-1-one]
≥ 7.00	Cc1c([C@@H](O)CN2CC3C(COc4ccc(C#N)cn4)C3C2)ccc2c1COC2=O (stereo partly drawn) [Example 106, 6-({3-[(2R)-2-Hydroxy-2-(4-methyl-1-oxo-1,3-dihydro-2-benzofuran-5-yl)ethyl]-3-azabicyclo[3.1.0]hex-6-yl}methoxy)pyridine-3-carbonitrile]
≥ 7.00	Cc1c([C@@H](O)CN2CCC(C)(COc3ccc(C#N)cn3)CC2)ccc2c1COC2=O [Example 107]
≥ 7.00	Cc1c([C@@H](O)CN2CCC(CS(=O)(=O)c3ccc4c(c3)CCOC4=O)CC2)ccc2c1COC2=O [Example 109, 6-[({1-[(2R)-2-Hydroxy-2-(4-methyl-1-oxo-1,3-dihydro-2-benzofuran-5-yl)ethyl]piperidin-4-yl}methyl)sulfonyl]-3,4-dihydro-1H-isochromen-1-one]

Reference: patent publication US9527830B2 (Merck Sharp & Dohme Corp., priority 2011, dated 2016)
